Experiments:
[1] = system: Jurkat NFκB-luciferase cells; test: Jurkat NFκB-Luciferase Assay; assay type: cell-based; conditions: Homo sapiens; Jurkat NFκB-luciferase cells activated with anti-CD3 antibody (OKT3), 2.5 hrs at 37° C.; geometric mean; read-out: DGK NFKb Luciferase EC50
Procedure, shortened: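 Jurkat NFκB-luciferase reporter cells at 1 million cells/ml in RPMI with 10% FBS were added to antibody-coated, compound-containing wells. Luciferase activity read by One-Glo Ex luminescence 7 minutes after reagent addition.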

[2] = biological target: human DGKα (Homo sapiens, UniProt P23743); test: DGKα Biochemical Activity Assay (ADP-Glo); conditions: recombinant DGKα 1 nM, 100 μM ATP, 18:1 DAG/POPS/octylglucoside micelles, 1 hour at 25° C.; geometric mean; read-out: HTBS DGKa 1X ATP KM IC50;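 further: luminescent detection of ADP produced as DGKα phosphorylates DAG to phosphatidic acid, IC50 from four-parameter nonlinear curve fit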
Sequence of human DGKα (P23743 whole entry): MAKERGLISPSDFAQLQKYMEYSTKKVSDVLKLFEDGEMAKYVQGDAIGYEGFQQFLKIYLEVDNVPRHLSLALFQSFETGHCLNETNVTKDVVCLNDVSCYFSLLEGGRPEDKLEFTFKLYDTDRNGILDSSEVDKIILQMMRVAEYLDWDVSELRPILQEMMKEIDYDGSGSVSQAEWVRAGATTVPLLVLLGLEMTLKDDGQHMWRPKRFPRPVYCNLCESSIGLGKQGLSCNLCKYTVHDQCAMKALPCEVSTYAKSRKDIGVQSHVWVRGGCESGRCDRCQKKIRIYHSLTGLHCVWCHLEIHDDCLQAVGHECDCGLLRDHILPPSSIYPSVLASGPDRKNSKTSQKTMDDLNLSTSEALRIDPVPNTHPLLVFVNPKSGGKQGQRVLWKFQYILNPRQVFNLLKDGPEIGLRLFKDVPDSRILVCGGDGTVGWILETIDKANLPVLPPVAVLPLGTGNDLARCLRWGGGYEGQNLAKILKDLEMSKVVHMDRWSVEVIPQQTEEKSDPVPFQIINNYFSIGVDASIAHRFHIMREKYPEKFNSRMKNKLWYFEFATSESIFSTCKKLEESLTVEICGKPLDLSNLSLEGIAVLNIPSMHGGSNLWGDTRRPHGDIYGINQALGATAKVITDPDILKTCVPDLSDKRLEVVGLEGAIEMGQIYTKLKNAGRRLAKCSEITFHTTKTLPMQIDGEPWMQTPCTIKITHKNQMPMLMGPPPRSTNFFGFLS

SMILES	EC50 [1]	IC50 [2]
Cc1nnc2nc(N3CCOCc4c3ccnc4C#CC(C)(C)C(F)(F)F)c3c(F)cccc3n12 [Example 140, 1-(6-fluoro-1-methyl-[1,2,4]triazolo[4,3-a]quinazolin-5-yl)-6-(4,4,4-trifluoro-3,3-dimethylbut-1-yn-1-yl)-1,2,3,5-tetrahydropyrido[4,3-e][1,4]oxazepine]	4.36 nM	4.52 nM
Cc1nnc2nc(N3CCOCc4c3ccnc4C#CC3(C)CC3)c3c(F)cccc3n12 [Example 141, 1-(6-fluoro-1-methyl-[1,2,4]triazolo[4,3-a]quinazolin-5-yl)-6-((1-methylcyclopropyl)ethynyl)-1,2,3,5-tetrahydropyrido[4,3-e][1,4]oxazepine]	5.11 nM	4.76 nM
Cc1nnc2nc(N3CCOCc4c3ccnc4C#CC3(C(C)(F)F)CC3)c3c(F)cccc3n12 [Example 142, 6-((1-(1,1-difluoroethyl)cyclopropyl)ethynyl)-1-(6-fluoro-1-methyl-[1,2,4]triazolo[4,3-a]quinazolin-5-yl)-1,2,3,5-tetrahydropyrido[4,3-e][1,4]oxazepine]	5.03 nM	16.4 nM
Cc1nnc2nc(N3CCOCc4c3ccnc4C#CC3(C(F)(F)F)CC3)c3c(F)cccc3n12 [Example 143, 1-(6-fluoro-1-methyl-[1,2,4]triazolo[4,3-a]quinazolin-5-yl)-6-((1-(trifluoromethyl)cyclopropyl)ethynyl)-1,2,3,5-tetrahydropyrido[4,3-e][1,4]oxazepine]	3.61 nM	3.85 nM
Cc1nnc2nc(N3CCOCc4c(C#CC(C)(C)NC(=O)C(C)(C)C(F)(F)F)cccc43)c3c(F)cccc3n12 [Example 144, 3,3,3-trifluoro-N-(4-(1-(6-fluoro-1-methyl-[1,2,4]triazolo[4,3-a]quinazolin-5-yl)-1,2,3,5-tetrahydrobenzo[e][1,4]oxazepin-6-yl)-2-methylbut-3-yn-2-yl)-2,2-dimethylpropanamide]	11.1 nM	4.73 nM
Cc1nnc2nc(N3CCOCc4c(C#CC5(NC(=O)C6(C(F)(F)F)CC6)CC5)cccc43)c3c(F)cccc3n12 [Example 145, N-(1-((1-(6-fluoro-1-methyl-[1,2,4]triazolo[4,3-a]quinazolin-5-yl)-1,2,3,5-tetrahydrobenzo[e][1,4]oxazepin-6-yl)ethynyl)cyclopropyl)-1-(trifluoromethyl) cyclopropane-1-carboxamide]	1.21 nM	6.87 nM
Cc1nnc2nc(N3CCOCc4c(C#CC(C)(C)NC(=O)OC(C)C(F)(F)F)cccc43)c3c(F)cccc3n12 (stereo not shown) [Example 146, 1,1,1-trifluoropropan-2-yl (4-(1-(6-fluoro-1-methyl-[1,2,4]triazolo[4,3-a]quinazolin-5-yl)-1,2,3,5-tetrahydrobenzo[e][1,4]oxazepin-6-yl)-2-methylbut-3-yn-2-yl)carbamate]	20.5 nM	3.54 nM
Cc1nnc2nc(N3CCOCc4c(C#CC(C)(C)NC(=O)C5(C(F)(F)F)CC5)cccc43)c3c(F)cccc3n12 [Example 147, N-(4-(1-(6-fluoro-1-methyl-[1,2,4]triazolo[4,3-a]quinazolin-5-yl)-1,2,3,5-tetrahydrobenzo[e][1,4]oxazepin-6-yl)-2-methylbut-3-yn-2-yl)-1-(trifluoromethyl) cyclopropane-1-carboxamide]	7.74 nM	3.16 nM
Cc1nnc2nc(N3CCOCc4c(C#CC(C)(C)NC(=O)OC(C)(C)C)cccc43)c3c(F)cccc3n12 [Example 148, tert-butyl (4-(1-(6-fluoro-1-methyl-[1,2,4]triazolo[4,3-a]quinazolin-5-yl)-1,2,3,5-tetrahydrobenzo[e][1,4]oxazepin-6-yl)-2-methylbut-3-yn-2-yl)carbamate]	6.03 nM	4.36 nM
Cc1nnc2nc(N3CCCc4c(C#CC(C)(C)NC(=O)OC(C)C(F)(F)F)cccc43)c3c(F)cccc3n12 (stereo not shown) [Example 149, 1,1,1-trifluoropropan-2-yl (4-(1-(6-fluoro-1-methyl-[1,2,4]triazolo[4,3-a]quinazolin-5-yl)-1,2,3,4-tetrahydroquinolin-5-yl)-2-methylbut-3-yn-2-yl)carbamate]	5.38 nM	14.1 nM
Cc1nnc2nc(N3CCCc4c(C#CC(C)(C)NC(=O)OC(C)(C)C)cccc43)c3c(F)cccc3n12 [Example 150, Tert-Butyl (4-(1-(6-fluoro-1-methyl-[1,2,4]triazolo[4,3-a]quinazolin-5-yl)-1,2,3,4-tetrahydroquinolin-5-yl)-2-methylbut-3-yn-2-yl)carbamate]	2.48 nM	11.5 nM
Cc1nnc2nc(N3CCCc4c(C#CC(C)(C)NC(=O)C5(C(F)(F)F)CC5)cccc43)c3c(F)cccc3n12 [Example 151, N-(4-(1-(6-fluoro-1-methyl-[1,2,4]triazolo[4,3-a]quinazolin-5-yl)-1,2,3,4-tetrahydroquinolin-5-yl)-2-methylbut-3-yn-2-yl)-1-(trifluoromethyl)cyclopropane-1-carboxamide]	3.59 nM	2.41 nM
Cc1nnc2nc(N3CCOCc4c(N5CC6CC(C5)C6(F)F)cccc43)c3c(F)cccc3n12 [Example 153]	3.98 nM	82.8 nM

Second part, the molecule after the results:

EC50 [1]	IC50 [2]	SMILES
53.9 nM	34.6 nM	Cc1nnc2nc(N3CCCc4c(C#CC(C)(C)O)cc(F)cc43)c3c(F)cccc3n12 [Example 152, 4-(7-fluoro-1-(6-fluoro-1-methyl-[1,2,4]triazolo[4,3-a]quinazolin-5-yl)-1,2,3,4-tetrahydroquinolin-5-yl)-2-methylbut-3-yn-2-ol]
6.33 nM	7.42 nM	Cc1nnc2nc(N3CCOCc4c(N5CCC(C)(C#N)CC5)cccc43)c3c(F)cccc3n12 [Example 154, 1-[1-(6-fluoro-1-methyl-[1,2,4]triazolo[4,3-a]quinazolin-5-yl)-3,5-dihydro-2H-4,1-benzoxazepin-6-yl]-4-methyl-piperidine-4-carbonitrile]
5.13 nM	25.6 nM	Cc1nnc2nc(N3CCCc4c(N5CCC(C)(C#N)CC5)cccc43)c3c(F)cccc3n12 [Example 155, 1-[1-(6-fluoro-1-methyl-[1,2,4]triazolo[4,3-a]quinazolin-5-yl)-3,4-dihydro-2H-quinolin-5-yl]-4-methyl-piperidine-4-carbonitrile]
1.02 nM	40.2 nM	Cc1nnc2nc(N3CCCc4c(N5CCC(C)(F)CC5)cccc43)c3c(F)cccc3n12 [Example 156, 6-fluoro-5-[5-(4-fluoro-4-methyl-1-piperidyl)-3,4-dihydro-2H-quinolin-1-yl]-1-methyl-[1,2,4]triazolo[4,3-a]quinazoline]
8.23 nM	672 nM	Cc1nnc2nc(N3CCCc4c(N5CCC(F)(F)CC5)cccc43)c3c(F)cccc3n12 [Example 157, 5-[5-(4,4-difluoro-1-piperidyl)-3,4-dihydro-2H-quinolin-1-yl]-6-fluoro-1-methyl-[1,2,4]triazolo[4,3-a]quinazoline]
49.3 nM	281 nM	Cc1nnc2nc(N3CCCc4c(N5CCN(C(=O)C(F)F)CC5)cccc43)c3c(F)cccc3n12 [Example 158, 2,2-difluoro-1-[4-[1-(6-fluoro-1-methyl-[1,2,4]triazolo[4,3-a]quinazolin-5-yl)-3,4-dihydro-2H-quinolin-5-yl]piperazin-1-yl]ethanone]
16.5 nM	333 nM	Cc1nnc2nc(N3CCCc4c(N5CCN(C(=O)C(F)(F)F)CC5)cccc43)c3c(F)cccc3n12 [Example 159]

— patent US11976072B2, “Diacylglycerol kinase modulating compounds” (priority 2021, dated 2024)
